From US20240252658A1, “BIFUNCTIONAL PROTAC-TYPE COMPOUNDS TARGETING PXR, METHOD FOR PREPARING SAME AND THERAPEUTIC USE THEREOF” (Centre National de la Recherche Scientifique, priority 2021, published 2024)

Tests used:
LS174T = test: Cell viability, Sulforhodamine B, LS174T; assay type: cell-based; details: LS174T line, increasing concentrations, 72 h
Protocol: (§1) The effect of PROTACs on cell viability has been tested on various lines CRC1, HT29 and LS174T. The cells were incubated in the presence of increasing concentrations of molecules for 72 h before being fixed and marked by Sulforhodamine B (Sigma). After washing and lysis of the cells, the incorporated colorant released by the cells is directly proportional to the cell biomass. It is measured at […] by a 96-well plate spectrophotometer (Tecan). The signal obtained for the untreated cells is set at 100%.

CRC1 cells = test: Aldefluor marking of cancer stem cells, CRC1; assay type: cell-based; details: 5 μM, 48 h, compared to untreated cells
Protocol: (§2) The effects of the PROTACs on the survival and self-renewal of colic cancer stem cells were studied in vitro on the HT29 line or cancer cells isolated from patients (CRC1). The cells were treated with or without 5 μM PROTACs for 48 h before being analyzed: Aldefluor marking, enzymatic activity preferentially present in cancer stem cells (FIG. 10A); formation of tumorspheres under aseric and non-adherent conditions (FIG. 10B), and finally resistance to chemotherapy (FIGS. […] and 10D).
(§3) The tumorspheres with a diameter of more than 50 μM were counted 10 days after treatment and culturing of 200 cells per well (previously treated with poly2Hema in order to prevent any cell adhesion) in 100 μL of depleted BCS medium. These culture conditions allow only the survival of cancer stem cells. FIGS. 10C and 10D show the effects of the PROTACs JMV7048 and JMV7965 on survival (10C) and the ability to form tumorspheres (10D) of the HT29 cells maintained in the presence of different concentrations of 5-FU and SN38 (Folfiri 1X=50 μg 5-FU+500 nM SN38) and cultured in 100 μL of depleted BCS medium in dishes pretreated with poly2Hema in order to prevent any cell adhesion. The tumorspheres with a diameter of more than 50 μM were counted 10 days after seeding 200 cells/well.

PXR protein [1] = target: T1, PXR protein (Homo sapiens, UniProt O75469); test: PXR degradation in LS174T cells by in vitro western blotting; assay type: cell-based; design: endogenous in cells; host or cells: LS174T; details: for expression level of the PXR protein: 5 μM, 24 h of treatment
T1 sequence (O75469 1-434): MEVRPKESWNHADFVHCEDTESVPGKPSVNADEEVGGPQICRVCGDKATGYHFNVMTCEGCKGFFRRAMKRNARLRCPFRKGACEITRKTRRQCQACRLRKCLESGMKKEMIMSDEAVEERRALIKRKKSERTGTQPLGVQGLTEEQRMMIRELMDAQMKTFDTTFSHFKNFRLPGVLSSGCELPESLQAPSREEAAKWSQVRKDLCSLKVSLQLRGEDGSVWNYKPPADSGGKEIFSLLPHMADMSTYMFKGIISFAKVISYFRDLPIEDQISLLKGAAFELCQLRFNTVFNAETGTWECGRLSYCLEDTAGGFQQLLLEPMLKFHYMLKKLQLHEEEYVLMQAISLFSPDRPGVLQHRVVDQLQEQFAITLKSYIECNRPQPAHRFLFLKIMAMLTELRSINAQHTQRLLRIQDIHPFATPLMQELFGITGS
Protocol: The effect of the PROTACs on the expression level of the PXR protein was studied by western blotting. The LS174T cells were […] in the absence or presence of 50 nM of an siRNA targeting PXR (siPXR: NR112 Silencer, Thermofischer) or treated by the PROTACs. After lysis of the cells (RIPA+antiproteases), the proteins were purified and assayed before being deposited ([…]) on 10% SDS-PAGE gel. […] The intensities of the signals were measured by a camera (BioRad MP Touch). […] FIGS. 6D and 6E illustrate the effect of JMV7048 on the expression level of PXR based on the treatment time (maximum effect reached after 3 h of treatment) and the concentration used (decrease dependent on the dose, with a maximum effect observed from 500 nM).

PXR [2] = test: CYP3A4 mRNA expression by RT-qPCR in LS174T cells; assay type: cell-based; details: 5 μM, 48 h, with rifampicin 5 μM
Protocol: . After lysis of the cells and purification of the total RNAs (Qiagen RNAeasy), the complementary DNAs were prepared (SuperScript II in the presence of random primers of 6 nucleotides, Invitrogen). The expression of CYP3A4 mRNA and RPLO and actin housekeeping genes was measured by RT-qPCR on an LC480 apparatus (Roche) in the presence of SyberGreen (Millipore). The relative expression levels were calculated according to the RQ=Relative quantification=2-ΔΔCt method, the untreated cells serving as a calibrator set to 1. […]

PXR [3] = test: CYP3A4 protein expression by western blotting in LS174T cells; assay type: cell-based; design: dose or concentration left out as unconfirmed; details: 48 h
Protocol: The LS174T cells were treated for 48 h with […] JMV7048 in the presence or absence of rifampicin (PXR ligand) at […] final. After lysis of the cells (RIPA+antiproteases), the proteins were purified and assayed before being deposited (90 μg) on 10% SDS-PAGE gel. […] The intensities of the signals were measured by a camera (BioRad MP Touch).

HT29 cells [4] = test: Cell viability, Sulforhodamine B, HT29; assay type: cell-based; details: increasing concentrations, 72 h
Protocol: as §1

CRC1 = test: Cell viability, Sulforhodamine B, CRC1; assay type: cell-based; details: CRC1 protoculture, increasing concentrations, 72 h
Protocol: as §1

HT29 cells [5] = test: Tumorsphere formation (Sphere Forming Cells), HT29; assay type: cell-based; details: 5 μM, 48 h, spheres counted after 10 days
Protocol: as §2, §3

HT29 cells [6] = test: Survival and chemoresistance of cancer stem cells in colon cancer cell lines; assay type: cell-based; details: 5 μM for 2 days, 5-FU and SN38 (Folfiri)
Protocol: as §2, §3

PXR protein [7] = target: T1, PXR protein; test: Importance of the proteasome pathway for PXR degradation, western blotting in LS174T cells; assay type: cell-based; design: endogenous in cells; host or cells: LS174T; details: 24 hours
Protocol: The involvement of the proteasome pathway in the effects of PROTACs on the expression level of the PXR protein was studied by western blotting. The LS174T cells were treated for 24 hours with JMV7048 in the presence or absence of the […] (MLN4924) or the proteasome inhibitor (Bortezomib).

[8] = target: T2, PXR ligand binding domain (LBD) (Homo sapiens, UniProt O75469); test: LanthaScreen TR-FRET PXR competitive binding assay; details: displacement of fluorescent reference ligand, 1:30 hours at room temperature, read-out: affinity for PXR
T2 construct: purchased Invitrogen
T2 sequence (O75469 146-433 limits assumed): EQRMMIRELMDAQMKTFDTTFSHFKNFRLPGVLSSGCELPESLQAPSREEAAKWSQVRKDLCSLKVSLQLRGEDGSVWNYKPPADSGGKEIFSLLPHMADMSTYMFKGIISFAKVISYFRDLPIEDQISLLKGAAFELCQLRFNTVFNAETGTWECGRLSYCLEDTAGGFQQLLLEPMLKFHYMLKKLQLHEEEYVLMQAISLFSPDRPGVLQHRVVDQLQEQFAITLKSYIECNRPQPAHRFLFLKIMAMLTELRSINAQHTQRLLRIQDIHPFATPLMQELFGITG
Protocol: The molecules were incubated for 1:30 hours at room temperature with the PXR LBD in the presence of a fluorescent reference ligand. The displacement of the fluorescent ligand caused by the prePROTAC or the PXR SR12813 ligand was measured by reading emissions at 520 nm and 495 nm after excitation at 337 nm on a PHERA-Star apparatus (BMG LABTECH).

Compound	toxicity (cell viability) (LS174T)	percentage of ALDH-positive cells (CRC1 cells)	expression level of the PXR protein (PXR protein [1])	effect on expression of CYP3A4 mRNA induced by rifampicin (PXR [2])	other results
Cc1cc(C)c(S(=O)(=O)Nc2ccc3c(c2)nc(CCCCCCCNC(=O)CCCCCCN2CCN(c4ccc5c(c4)C(=O)N(C4CCC(=O)NC4=O)C5=O)CC2)n3Cc2ccccc2)c(C)c1 (centres unmarked) [JMV7505]	absence of toxicity	significantly reduce the percentage of ALDH-positive cells	significantly reduce the expression level of the PXR protein	–	–
Cc1cc(C)c(S(=O)(=O)Nc2ccc3c(c2)nc(CCCCCCCNC(=O)CCCCCN2CCN(c4ccc5c(c4)C(=O)N(C4CCC(=O)NC4=O)C5=O)CC2)n3Cc2ccccc2)c(C)c1 (centres unmarked) [JMV7048]	absence of toxicity	significantly reduce the percentage of ALDH-positive cells	significantly reduce the expression level of the PXR protein	significantly reduce the induction of CYP3A4	effect on induction of the CYP3A4 enzyme mediated by rifampicin (PXR [3]): reduce the induction of the CYP3A4 enzyme; cell viability (HT29 cells [4]): does not affect the viability; cell viability (CRC1): does not affect the viability; number of cells capable of surviving anoikis and forming tumorspheres (Sphere Forming Cells) (HT29 cells [5]): significantly reduce the number of HT29 cells; survival and chemoresistance of stem cells (HT29 cells [6]): significantly reduces the survival and chemoresistance of stem cells; treatment time at which maximum effect on PXR expression level is reached (PXR protein [1]): 3 h; concentration from which maximum effect on PXR expression level is observed (PXR protein [1]; decrease dependent on the dose): ≥ 500 nM; decrease in PXR expression level with MLN4924 or Bortezomib (PXR protein [7]; with or without MLN4924 or Bortezomib): reverted by the CRBN ubiquitin ligase inhibitors (MLN4924, FIG. 8A) or by an inhibitor of the 26S proteasome
Cc1cc(C)c(S(=O)(=O)Nc2ccc3c(c2)nc(CCCCCCCNC(=O)CN2CCC(CN4CCN(c5ccc6c(c5)C(=O)N(C5CCC(=O)NC5=O)C6=O)CC4)CC2)n3Cc2ccccc2)c(C)c1 (centres unmarked) [JMV7965]	–	significantly reduce the percentage of ALDH-positive cells	significantly reduce the expression level of the PXR protein	significantly reduce the induction of CYP3A4	effect on induction of the CYP3A4 enzyme mediated by rifampicin (PXR [3]): reduce the induction of the CYP3A4 enzyme; number of cells capable of surviving anoikis and forming tumorspheres (Sphere Forming Cells) (HT29 cells [5]): significantly reduce the number of HT29 cells; survival and chemoresistance of stem cells (HT29 cells [6]): significantly reduces the survival and chemoresistance of stem cells
Cc1cc(C)c(S(=O)(=O)Nc2ccc3c(c2)nc(CCCCCCCNC(=O)CCCCCN2CCN(C4CCC5C(=O)N(C6CCC(=O)N(C)C6=O)C(=O)C5C4)CC2)n3Cc2ccccc2)c(C)c1 (centres unmarked) [JMV7159]	–	–	–	additive effect on the expression of CYP3A4 mRNA	expression level of the PXR protein (PXR protein [7]): does not cause a decrease in the expression level of PXR
Cc1cc(C)c(S(=O)(=O)Nc2ccc3c(c2)nc(CCCCCCCN)n3Cc2ccccc2)c(C)c1 [JMV6944, N-[2-(7-aminoheptyl)-1-benzyl-1H-1,3-benzodiazol-5-yl]-2,4,6-trimethylbenzene-1-sulfonamide]	–	–	–	additive effect on the expression of CYP3A4 mRNA	Kd [8]: 18.4 nM
Cc1cc(C)c(S(=O)(=O)Nc2ccc3c(c2)nc(CCCCCCCNC(=O)CCCCCCCN2CCN(c4ccc5c(c4)C(=O)N(C4CCC(=O)NC4=O)C5=O)CC2)n3Cc2ccccc2)c(C)c1 (centres unmarked) [JMV7506]	–	significantly reduce the percentage of ALDH-positive cells	significantly reduce the expression level of the PXR protein	–	–
Cc1cc(C)c(S(=O)(=O)Nc2ccc3c(c2)nc(CCCCCCCNC(=O)CCCCCCN2CCN(c4ccc(C(=O)NC5CCC(=O)NC5=O)cc4)CC2)n3Cc2ccccc2)c(C)c1 (centres unmarked) [JMV7605]	absence of toxicity	–	significantly reduce the expression level of the PXR protein	–	–
